Assay results reported in ChEMBL document CHEMBL3988442, “University of Dundee, Small-Polar-MMV Screening Library” (2021).
“And” between values parts separate entries of the source, which are not always exact repeats. Equal values may be shown once.

What was measured:
[1] = system: Mycobacterium tuberculosis; assay: Cornell M. t heat shock assay; assay type: functional, organism-based; settings: for IC50: Mycobacterium tuberculosis
[2] = system: Wolbachia pipientis; assay: Anti-Wolbachia Cell-Based Screen; assay type: functional; settings: for IC50: Wolbachia pipientis
[3] = microbe, parasite or virus in culture; settings: Mycobacterium tuberculosis, 96 h, read-out: pIC50 (converted)
[4] = microbe, parasite or virus in culture; settings: Mycobacterium tuberculosis, 72 h, read-out: pIC50 (converted)
[5] = target: Polyketide synthase Pks13 (Mycobacterium tuberculosis (strain ATCC 25618 / H37Rv), UniProt I6X8D2); assay: Mycobacterium tuberculosis Polyketide synthase 13 Thioesterase (PKS13); assay type: functional
[6] = target: T1, Histidine--tRNA ligase (Leishmania infantum, UniProt A4I591); assay: Leishmania infantum Histidine tRNA synthetase (LdHisRS); assay type: functional
T1 sequence (A4I591 whole entry): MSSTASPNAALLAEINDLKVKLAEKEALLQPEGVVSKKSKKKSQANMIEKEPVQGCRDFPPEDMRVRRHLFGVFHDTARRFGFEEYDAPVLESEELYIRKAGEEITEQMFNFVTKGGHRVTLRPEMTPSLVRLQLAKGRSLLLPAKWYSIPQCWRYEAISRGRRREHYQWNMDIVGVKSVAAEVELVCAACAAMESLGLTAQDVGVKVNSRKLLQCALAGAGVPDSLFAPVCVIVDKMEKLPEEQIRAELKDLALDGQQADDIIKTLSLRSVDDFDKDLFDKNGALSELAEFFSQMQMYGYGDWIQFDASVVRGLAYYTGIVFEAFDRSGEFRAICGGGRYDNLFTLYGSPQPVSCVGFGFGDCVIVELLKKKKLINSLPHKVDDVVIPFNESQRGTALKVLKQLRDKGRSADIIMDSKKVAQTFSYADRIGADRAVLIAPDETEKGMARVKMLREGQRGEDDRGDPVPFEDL

[7] = target: ClpP1P2 (Mycobacterium tuberculosis (strain ATCC 25618 / H37Rv), UniProt P9WPC3+P9WPC5); assay: in vitro assay to detect presence of AMC directly proportional to the activity of ClpP1P2. GHDDI collaboration.; assay type: functional
[8] = system: Schistosoma mansoni; assay: High throughput screening of compounds against Schistosoma mansoni motility; assay type: functional; parameters: dose or concentration left out as unconfirmed
[9] = target: Lysine--tRNA ligase (Plasmodium falciparum (isolate 3D7), UniProt Q8IDJ8); assay: Pf-KRS-1 (Lysyl-RNA Synthetase-1, KRS-1, cytosolic KRS) from Plasmodium falciparum. Inhibitor assay, 384 well plate, luminescence read.; assay type: functional
Chain of Lysine--tRNA ligase (Q8IDJ8 whole entry): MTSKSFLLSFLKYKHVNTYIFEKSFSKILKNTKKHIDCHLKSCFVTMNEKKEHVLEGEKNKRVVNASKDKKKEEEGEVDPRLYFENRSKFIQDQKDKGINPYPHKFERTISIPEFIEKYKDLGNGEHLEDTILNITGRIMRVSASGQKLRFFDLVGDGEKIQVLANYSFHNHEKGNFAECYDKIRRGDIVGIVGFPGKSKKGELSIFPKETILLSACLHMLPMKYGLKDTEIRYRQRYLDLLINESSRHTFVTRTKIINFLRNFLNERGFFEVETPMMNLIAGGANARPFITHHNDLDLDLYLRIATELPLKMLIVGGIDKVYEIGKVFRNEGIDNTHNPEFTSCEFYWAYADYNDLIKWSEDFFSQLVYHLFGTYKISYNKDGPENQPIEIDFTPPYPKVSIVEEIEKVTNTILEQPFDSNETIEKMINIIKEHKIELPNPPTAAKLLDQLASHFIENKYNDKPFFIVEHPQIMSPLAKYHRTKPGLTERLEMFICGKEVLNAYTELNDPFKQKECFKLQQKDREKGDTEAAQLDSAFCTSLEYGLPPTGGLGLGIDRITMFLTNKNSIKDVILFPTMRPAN

Chain of Polyketide synthase Pks13 (I6X8D2 whole entry): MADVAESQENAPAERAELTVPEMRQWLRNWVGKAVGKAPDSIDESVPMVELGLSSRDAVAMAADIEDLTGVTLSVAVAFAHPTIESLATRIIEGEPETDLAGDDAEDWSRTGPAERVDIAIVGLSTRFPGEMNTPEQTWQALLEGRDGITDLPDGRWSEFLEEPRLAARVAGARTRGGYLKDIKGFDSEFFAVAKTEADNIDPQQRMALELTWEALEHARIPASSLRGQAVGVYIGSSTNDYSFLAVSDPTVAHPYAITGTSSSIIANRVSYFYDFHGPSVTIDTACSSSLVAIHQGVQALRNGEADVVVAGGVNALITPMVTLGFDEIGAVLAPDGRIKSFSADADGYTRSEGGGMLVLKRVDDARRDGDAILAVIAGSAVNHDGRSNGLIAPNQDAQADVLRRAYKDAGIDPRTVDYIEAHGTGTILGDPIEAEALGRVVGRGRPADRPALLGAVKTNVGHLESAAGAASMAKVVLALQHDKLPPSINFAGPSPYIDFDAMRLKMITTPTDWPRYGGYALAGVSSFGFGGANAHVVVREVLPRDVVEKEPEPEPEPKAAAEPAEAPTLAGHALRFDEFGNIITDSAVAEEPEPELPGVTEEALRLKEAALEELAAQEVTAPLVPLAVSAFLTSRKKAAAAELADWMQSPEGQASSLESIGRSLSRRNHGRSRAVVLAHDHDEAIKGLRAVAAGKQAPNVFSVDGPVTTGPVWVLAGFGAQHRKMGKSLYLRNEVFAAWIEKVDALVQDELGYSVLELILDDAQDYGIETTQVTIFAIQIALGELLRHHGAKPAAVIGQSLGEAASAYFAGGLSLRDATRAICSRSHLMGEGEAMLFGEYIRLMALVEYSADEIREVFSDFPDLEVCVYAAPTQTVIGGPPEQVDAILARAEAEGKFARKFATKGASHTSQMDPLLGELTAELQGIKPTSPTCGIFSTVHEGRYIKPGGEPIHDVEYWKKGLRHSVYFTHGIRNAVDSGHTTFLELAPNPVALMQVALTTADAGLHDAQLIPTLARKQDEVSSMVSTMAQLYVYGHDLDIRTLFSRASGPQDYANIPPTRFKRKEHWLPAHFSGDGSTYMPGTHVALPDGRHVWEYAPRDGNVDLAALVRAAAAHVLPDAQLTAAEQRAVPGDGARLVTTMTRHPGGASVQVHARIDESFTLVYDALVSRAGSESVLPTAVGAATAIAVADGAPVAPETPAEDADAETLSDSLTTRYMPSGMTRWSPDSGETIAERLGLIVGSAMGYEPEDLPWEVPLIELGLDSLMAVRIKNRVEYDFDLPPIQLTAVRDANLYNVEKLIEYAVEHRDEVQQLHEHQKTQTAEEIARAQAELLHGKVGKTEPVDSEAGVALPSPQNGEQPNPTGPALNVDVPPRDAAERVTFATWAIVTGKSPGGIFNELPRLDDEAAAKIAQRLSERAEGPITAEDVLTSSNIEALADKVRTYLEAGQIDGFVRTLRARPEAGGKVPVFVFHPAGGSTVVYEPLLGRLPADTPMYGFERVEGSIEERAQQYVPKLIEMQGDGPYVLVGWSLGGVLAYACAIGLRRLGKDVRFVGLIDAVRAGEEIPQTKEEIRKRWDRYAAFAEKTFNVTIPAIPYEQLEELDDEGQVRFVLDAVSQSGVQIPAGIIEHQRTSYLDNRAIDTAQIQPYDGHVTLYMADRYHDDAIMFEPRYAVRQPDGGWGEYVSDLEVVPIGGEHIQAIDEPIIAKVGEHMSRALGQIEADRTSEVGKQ
Chain of ClpP1P2 (P9WPC5 whole entry): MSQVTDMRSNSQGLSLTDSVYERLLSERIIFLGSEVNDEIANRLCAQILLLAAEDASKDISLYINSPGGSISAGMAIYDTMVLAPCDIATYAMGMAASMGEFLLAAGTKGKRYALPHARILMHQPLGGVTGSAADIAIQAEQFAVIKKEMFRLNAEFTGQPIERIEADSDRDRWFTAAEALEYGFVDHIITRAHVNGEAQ
Chain of ClpP1P2 (P9WPC3 whole entry): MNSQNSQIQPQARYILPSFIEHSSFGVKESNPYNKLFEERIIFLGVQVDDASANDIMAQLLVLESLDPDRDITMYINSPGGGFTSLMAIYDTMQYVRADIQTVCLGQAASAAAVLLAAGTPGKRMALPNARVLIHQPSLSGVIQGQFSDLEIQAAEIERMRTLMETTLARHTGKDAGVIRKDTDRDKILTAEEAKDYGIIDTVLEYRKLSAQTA

Row | Compound | IC50 [1] | IC50 [2] | further results
1 | Cc1cccn2cc(CN3CCCC(c4noc(C5CC5)n4)C3)nc12 (stereo not drawn) | 46.5 µM |  | 
2 | CNc1cc(C)nc(N2Cc3cnn(Cc4ccc(F)cc4)c3C2)n1 |  | 0.556 µM | pIC50 [2]: 6.156; IC50 [3]: 24.2 µM; IC50 [4]: 33.6 µM
3 | COc1ccc(CNC(Cc2ccsc2)c2ccc(C)cn2)cc1OC (stereo not drawn) | 25.6 µM |  | 
4 | Cc1ccc(C(C)N(C)Cc2nc3c(cnn3C)c(=O)[nH]2)s1 (stereo not drawn) | > 100 µM |  | 
5 | Cn1c(CCN2CCN(CCc3ccccc3)CC2)nc2ccccc21 | > 100 µM |  | 
6 | COc1ccc(CCNCc2c(C)nn(C)c2N(C)C)cc1OC | > 100 µM |  | 
7 | NC(=O)NC(=O)CCN1CCN(c2nccs2)CC1 | 35.1 µM |  | 
8 | O=c1[nH]c(CCN2CCCC2Cn2cccn2)nc2ccccc12 (stereo not drawn) | 47.5 µM |  | 
9 | CCNC(=O)[C@@H]1C[C@H](NC(=O)Cn2ccnc2)CN1Cc1ccsc1 | > 100 µM |  | 
10 | Cc1cc(-c2cnc(N3CCCCCC3)nc2-c2cccnc2C)on1 | 68.5 µM |  | pIC50 [1]: 4.097
11 | O=S(=O)(Nc1cnc(N2CCCC2)nc1)c1ccc(OC(F)(F)F)cc1 | > 100 µM |  | 
12 | CCn1nc(C)c(CNC(=O)c2nnc3ccc(Cl)cc3n2)c1C | 17.3 µM |  | 
13 | c1nnc(Nc2cncc(C3CCCN3)n2)s1 (stereo not drawn) | 6.43 µM |  | 
14 | Cn1ccnc1C(NCc1ccc(Br)cc1)c1ccccc1 (stereo not drawn) | 17.7 µM |  | 
15 | Cc1cc(O)cc(=O)n1CCCC(=O)Nc1n[nH]c2cccc(F)c12 | > 100 µM |  | 
16 | CC1c2ccc(F)cc2CCN1C(=O)c1[nH]c(=O)[nH]c(=O)c1N (stereo not drawn) | > 100 µM |  | 
17 | COc1cccc(S(=O)(=O)NC(=O)CCC2CCCC2)c1 | > 100 µM |  | 
18 | CC(C)c1nc(N2CCC(N3CCCCCC3)CC2)c2cnn(C)c2n1 | 52.5 µM |  | 
19 | CO[C@@H]1CCN(c2nnc(C)s2)C[C@@H]1Cc1ccccc1.O=C(O)C(F)(F)F |  | 0.958 µM | pIC50 [2]: 6.169; IC50 [3]: 7.95 µM; IC50 [4]: 11.3 µM
20 | CCNc1ncc(C(=O)NCc2ccc3nsnc3c2)cn1 | > 100 µM |  | 
21 | Nc1cc(-c2cccs2)nn(CC(=O)NCC2CCCCC2)c1=O | > 100 µM |  | 
22 | Cc1ccc(C2CCCN2S(=O)(=O)N(C)CCc2ccccn2)o1 (stereo not drawn) | > 100 µM |  | 
23 | NCC1CCC(c2c(C(=O)NCCO)sc3ccccc23)CC1 (stereo not drawn) | > 100 µM |  | 

Row | Compound | IC50 [1] | IC50 [2] | further results
24 | CCC(=O)N1CCN(C(=O)Cn2cccn2)CC1 | 22.2 µM |  | 
25 | Cc1c(CN(C)c2cc(C3CCCNC3)ncn2)[nH]c2ccccc12 (stereo not drawn) | > 100 µM |  | 
26 | COc1ccc(N2CCC(NCc3csc(C(C)C)n3)CC2)cc1 | > 100 µM |  | 
27 | CCN1c2ccc(-c3cncn3CC(=O)NC(C)(C)C)cc2CC1C (stereo not drawn) | > 100 µM |  | 
28 | CCOc1cccc2c1OCC(C(=O)NS(=O)(=O)c1c(C)noc1C)=C2 | 69.3 µM |  | pIC50 [1]: < 4
29 | CCOc1cccc(COC(=O)c2cscn2)n1 | > 100 µM |  | 
30 | COc1cc(C(=O)Nc2nc(C)no2)cc(OC)c1Br | 21 µM |  | pIC50 [1]: 4.518
31 | O=C1[C@H]2CC[C@H](CN(c3ncnc4ccsc34)C2)N1CC1CC1 |  | 5.55 µM | IC50 [5]: > 100 µM; pIC50 [2]: 5.348; IC50 [3]: > 50.1 µM; IC50 [4]: > 50.1 µM
32 | CC(=O)N1CCC[C@@H](NCc2c[nH]c3ccccc23)[C@@H]1c1ccc(C)s1 | > 100 µM |  | 
33 | CCC(NC(=O)Nc1ccc(OC)c(C)c1)c1ccncc1 (stereo not drawn) | 49.9 µM |  | 
34 | CCC(CN1CCOCC1)n1cncc1-c1ccc2c(c1)CCN2CC (stereo not drawn) | 98.5 µM |  | 
35 | COCCCNC(=O)CN(C)C(=O)c1cc(Cl)ccc1O | 87.8 µM |  | pIC50 [1]: < 4
36 | CC1(c2ccccc2)CCCN(Cc2cncn2C2CC2)C1 (stereo not drawn) | 45.7 µM |  | 
37 | N#Cc1ccc(N2CCCC3(CCN(c4cccnc4)CC3)C2)cc1.O=C(O)C(F)(F)F |  |  | IC50 [6]: 24.6 µM and 24.2 µM; pIC50 [2]: 6.279 and 5.873
38 | Cc1ccc(CNC(c2cccc(F)c2)c2nccn2C)o1 (stereo not drawn) | > 100 µM |  | 
39 | CO[C@@H]1CCN(c2nnc(C)s2)C[C@@H]1Cc1cccc(C)c1.O=C(O)C(F)(F)F |  | 1.57 µM | pIC50 [2]: 5.813; IC50 [3]: 16.3 µM; IC50 [4]: 41.6 µM
40 | O=C(O)C(F)(F)F.O=C(O)C(F)(F)F.c1cncc(-c2ccc3c(c2)CCC32CCN(Cc3ccco3)CC2)c1 |  | 0.404 µM | pIC50 [2]: 6.473; IC50 [3]: 28.7 µM; IC50 [4]: 20.5 µM
41 | O=C(O)C(F)(F)F.c1cc(-c2ccc3c(c2)CCC32CCN(c3nncs3)CC2)ccn1 |  | 5.68 µM | IC50 [6]: 19.6 µM and 24.9 µM; pIC50 [2]: 5.133
42 | CCNc1cc2c(nn1)CCN(C(=O)c1ccnc(C)n1)C2 |  | > 10 µM | IC50 [6]: 58.6 µM and 51.7 µM
43 | Fc1ccc(CN2CCCC(c3cc4ncccc4[nH]3)C2)cc1 (stereo not drawn) |  | 6.78 µM | pIC50 [2]: 5.047; IC50 [3]: 24.3 µM; IC50 [4]: 33.7 µM
44 | CCn1cc(-c2cc(-c3cc(CN(C)C)cs3)nc(N)c2C#N)c(C)n1 |  | > 10 µM | IC50 [5]: 24.7 µM and 11 µM; IC50 [7]: > 100 µM
45 | Cc1csc(CN(C)c2cc(C)nc3c(C)c(C)nn23)n1 |  | 6.27 µM | pIC50 [2]: 5.234; IC50 [3]: 25.5 µM; IC50 [4]: 37.9 µM
46 | COc1ccc(C[C@H]2CN(c3nnc(C)s3)CC[C@H]2OC)cc1.O=C(O)C(F)(F)F |  | 0.462 µM | pIC50 [2]: 6.226; IC50 [3]: 16.4 µM; IC50 [4]: 16.3 µM

Row | Compound | IC50 [1] | IC50 [2] | further results
47 | CN(Cc1ccc(F)cc1)CC1(O)CCCN(CC(C)(C)C)C1=O (stereo not drawn) |  | > 10 µM | Percent Effect [8]: 7.085%
48 | Cc1ccc(CN2CCn3c(CNC(=O)c4cccn4C)cnc3C2)s1 |  | > 10 µM | IC50 [6]: 64.8 µM and 62.5 µM
49 | CO[C@H]1CCN(c2nnc(C)s2)C[C@@H]1Cc1cccc(C)c1.O=C(O)C(F)(F)F |  | 3.74 µM | pIC50 [2]: 5.267; IC50 [3]: 16.7 µM; IC50 [4]: 41.7 µM
50 | CSCC[C@H](N)C(=O)NCc1cc2n(n1)CCCN(C(=O)C1CCC1)C2 |  | > 10 µM | Percent Effect [8]: -28.36%
51 | CCc1sc(C(=O)NC2CC2)cc1C |  | > 10 µM | 
52 | CO[C@H]1CCN(c2nnc(C)s2)C[C@@H]1Cc1ccccc1.O=C(O)C(F)(F)F |  | 3.77 µM | pIC50 [2]: 5.449; IC50 [3]: 15.7 µM; IC50 [4]: 40.3 µM
53 | N#Cc1cc(F)c(NCc2ccc(F)cc2)c(F)c1 |  | > 10 µM | 
54 | COc1cc(CNC(=O)c2csc(Br)c2)ccn1 |  | 5.94 µM | pIC50 [2]: 5.03
55 | Cc1noc(-c2ccnc(Oc3ccc(CN4CCCC4)cc3C)c2)n1 |  |  | pIC50 [2]: 5.704 and 5.368
56 | Cc1nnc(N2CCCC3(CN(Cc4nccs4)CCO3)C2)o1 (stereo not drawn) |  | > 10 µM | 
57 | COc1cc(CNC(=O)c2c(C)noc2C)ccn1 |  | > 10 µM | 
58 | CCn1cc(NC(=O)c2cccc(CN3C[C@@H](C)O[C@@H](C)C3)c2)nn1 |  | 8.23 µM | pIC50 [2]: < 5
59 | O=C(Nc1ccnc(OC2CCOC2)c1)c1ccccc1Cl (stereo not drawn) |  |  | pIC50 [2]: 5.461 and 5.05
60 | CN(CCc1ccccc1)Cc1cc(C(=O)N2CCN(C)C(=O)C2)no1 |  | > 10 µM | 
61 | CCC(CC)C(O)CNC(=O)Nc1cc(C)nn1C (stereo not drawn) |  | > 10 µM | 
62 | Cc1cc(NC(=O)NCC(O)c2ccc(F)c(F)c2)n(C)n1 (stereo not drawn) |  | > 10 µM | 
63 | FC(F)(F)c1nc(NC2CCCCC2)c2ccccc2n1 |  |  | pIC50 [2]: 5.146 and 5.539
64 | Fc1ccc(N2CCCN(Cc3ccc(-c4cc[nH]n4)o3)CC2)cc1 |  | 6.44 µM | pIC50 [2]: 5.26
65 | COc1ccc(CC(=O)N(C)c2cccnc2N(C)C)c(Cl)c1 |  | 4.83 µM | IC50 [9]: > 50.1 µM; IC50 [6]: 19.4 µM and 16.5 µM; pIC50 [2]: 5.287
66 | CC(C)N1CC(NC(=O)c2ccc(Cl)s2)CC1=O (stereo not drawn) |  | > 10 µM | 
67 | Cn1c(=O)n(C)c2cc(C3SCC(=O)Nc4ccsc43)ccc21 (stereo not drawn) |  | 2.44 µM | pIC50 [2]: 5.481
